Experimental findings from US20240239792A1, “MODULATORS OF BCL-2 OR BCL-2/BCL-XL AND USES THEREOF” (APPICINE THERAPEUTICS (HK) LIMITED, priority 2021, published 2024) are described below.

In one assay the target is T1, BCL-XL (Homo sapiens, UniProt Q07817).
T1 construct: purchased Cisbio 63ADK000CB04PEG
Nature of the assay: HTRF BCL-XL/BAK assay (Cisbio). The class given is binding. The note with it: recombinant human Tag1-BCL-XL 2 nM, Tag2-BAK 5 nM. The protocol: (§1) Then the pre-mixed anti-Tag1-Eu^3+ and anti-tag2-XL665 were added to the plate and further incubated at room temperature for another 2 hours. The signals ([…]) were read on Envision 2104 instrument. The IC50 for each compound was derived from fitting the signal of 665/615 nM to the increasing compound concentration.
(§2) Using the above assays, the following compounds were tested.
(In general: Time-resolved FRET reads energy transfer from a long-lived donor to a nearby acceptor.)

Another assay concerns DOHH2 cells. Description: CellTiter-Glo cell proliferation assay, DOHH2 cells. In kind it is cell-based. Conditions: Homo sapiens, DOHH-2, 72 hours. The procedure, abridged:
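GI50 derived from CellTiter-Glo luminescent viability signal. Cells grown in DMEM with 10% FBS received a compound dilution series for 72 h (37 °C, 5% CO2).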
A general note: ATP-based viability assays read luminescence as a measure of living cells.

The target in the next assay is T2, BCL-2 (Homo sapiens, UniProt P10415).
T2 construct: purchased Cisbio 63ADK000CB01PEG
T2 sequence (P10415 whole entry): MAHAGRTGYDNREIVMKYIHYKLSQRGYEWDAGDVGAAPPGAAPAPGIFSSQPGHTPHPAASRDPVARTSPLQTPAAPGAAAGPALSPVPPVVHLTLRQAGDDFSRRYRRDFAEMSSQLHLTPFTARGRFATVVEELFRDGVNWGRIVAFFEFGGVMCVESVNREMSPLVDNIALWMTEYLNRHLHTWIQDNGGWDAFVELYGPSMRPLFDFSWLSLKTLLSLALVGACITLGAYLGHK
Description: HTRF BCL-2/BAK assay (Cisbio). The class given is binding. Conditions: recombinant human Tag1-BCL-2 2 nM, Tag2-BAK 10 nM. The protocol: as §1, §2

T1 sequence (Q07817 whole entry): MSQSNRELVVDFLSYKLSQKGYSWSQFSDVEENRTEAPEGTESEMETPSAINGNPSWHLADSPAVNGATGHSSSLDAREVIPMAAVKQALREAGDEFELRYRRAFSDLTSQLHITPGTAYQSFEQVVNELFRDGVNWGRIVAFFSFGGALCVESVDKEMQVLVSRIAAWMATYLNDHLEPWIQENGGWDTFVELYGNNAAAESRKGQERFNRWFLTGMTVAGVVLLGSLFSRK

As for `O=C(NS(=O)(=O)c1ccc(NCC2CCn3ccnc3C2)c([N+](=O)[O-])c1)c1ccc(N2CCN(C3CCCCc4c(Cl)cccc43)CC2)cc1Oc1cnc2[nH]ccc2c1` (stereo not drawn) [Compound 53, 2-((1H-pyrrolo[2,3-b]pyridin-5-yl)oxy)-4-(4-(1-chloro-6,7,8,9-tetrahydro-5H-benzo[7]annulen-5-yl)piperazin-1-yl)-N-((3-nitro-4-(((5,6,7,8-tetrahydroimidazo[1,2-a]pyridin-7-yl)methyl)amino)phenyl)sulfonyl)benzamide], the half-maximal inhibitory concentration (IC50) on BCL-XL and at BCL-2 was under 20 nM throughout. Further, the GI50 (as a rule, the concentration at which growth is held to half of that of the control) with DOHH2 cells was 50 to 500 nM.
In the case of `O=C(NS(=O)(=O)c1ccc(NCC2CCOCC2)c([N+](=O)[O-])c1)c1ccc(N2CCN(C3CCCCc4c(-c5ccn[nH]5)cccc43)CC2)cc1Oc1cnc2[nH]ccc2c1` (stereo not drawn) [Compound 54, 4-(4-(1-(1H-pyrazol-3-yl)-6,7,8,9-tetrahydro-5H-benzo[7]annulen-5-yl)piperazin-1-yl)-2-((1H-pyrrolo[2,3-b]pyridin-5-yl)oxy)-N-((3-nitro-4-(((tetrahydro-2H-pyran-4-yl)methyl)amino)phenyl)sulfonyl)benzamide], the IC50 (as a rule, the concentration at which inhibition is half-maximal) was over 2000 nM at BCL-XL and under 20 nM on BCL-2. The compound also came in with a GI50 with DOHH2 cells of 500 to 5000 nM.
`CS(=O)(=O)Nc1cccc2c1CCCCC2N1CCN(c2ccc(C(=O)NS(=O)(=O)c3ccc(NCC4CCOCC4)c([N+](=O)[O-])c3)c(Oc3cnc4[nH]ccc4c3)c2)CC1` (stereo not drawn) [Compound 56, 2-((1H-pyrrolo[2,3-b]pyridin-5-yl)oxy)-4-(4-(1-(methylsulfonamido)-6,7,8,9-tetrahydro-5H-benzo[7]annulen-5-yl)piperazin-1-yl)-N-((3-nitro-4-(((tetrahydro-2H-pyran-4-yl)methyl)amino)phenyl)sulfonyl)benzamide]: the IC50 on BCL-XL is over 2000 nM; on BCL-2 it was 20 to 200 nM. The compound further registered a GI50 with DOHH2 cells of over 5000 nM.
For `CC(CO)c1cccc2c1CCCCC2N1CCN(c2ccc(C(=O)NS(=O)(=O)c3ccc(NCC4CCOCC4)c([N+](=O)[O-])c3)c(Oc3cnc4[nH]ccc4c3)c2)CC1` (stereo not drawn) [Compound 61, 2-((1H-pyrrolo[2,3-b]pyridin-5-yl)oxy)-4-(4-(1-(1-hydroxypropan-2-yl)-6,7,8,9-tetrahydro-5H-benzo[7]annulen-5-yl)piperazin-1-yl)-N-((3-nitro-4-(((tetrahydro-2H-pyran-4-yl)methyl)amino)phenyl)sulfonyl)benzamide] the same measures were 200 to 2000 nM, under 20 nM and 500 to 5000 nM.
Turning to `CCP(=O)(CC)c1cccc2c1CCCCC2N1CCN(c2ccc(C(=O)NS(=O)(=O)c3ccc(NCC4CCOCC4)c([N+](=O)[O-])c3)c(Oc3cnc4[nH]ccc4c3)c2)CC1` (stereo not drawn) [Compound 62, 2-((1H-pyrrolo[2,3-b]pyridin-5-yl)oxy)-4-(4-(1-(diethylphosphoryl)-6,7,8,9-tetrahydro-5H-benzo[7]annulen-5-yl)piperazin-1-yl)-N-((3-nitro-4-(((tetrahydro-2H-pyran-4-yl)methyl)amino)phenyl)sulfonyl)benzamide], the IC50 on BCL-XL was over 2000 nM; at BCL-2, 20 to 200 nM. In addition, in the assay with DOHH2 cells, the GI50 is over 5000 nM.
For `CP(C)(=O)c1cccc2c1CCCCC2N1CCN(c2ccc(C(=O)NS(=O)(=O)c3ccc(NCC4CCOCC4)c([N+](=O)[O-])c3)c(Oc3cnc4[nH]ccc4c3)c2)CC1` (stereo not drawn) [Compound 63, 2-((1H-pyrrolo[2,3-b]pyridin-5-yl)oxy)-4-(4-(1-(dimethylphosphoryl)-6,7,8,9-tetrahydro-5H-benzo[7]annulen-5-yl)piperazin-1-yl)-N-((3-nitro-4-(((tetrahydro-2H-pyran-4-yl)methyl)amino)phenyl)sulfonyl)benzamide] the same measures were over 2000 nM, 20 to 200 nM and over 5000 nM.
For `O=C(NS(=O)(=O)c1ccc(NCC2COC3OCCC23)c([N+](=O)[O-])c1)c1ccc(N2CCN(C3CCCCc4c(Cl)cccc43)CC2)cc1Oc1cnc2[nH]ccc2c1` (stereo not drawn) [Compound 64, 2-((1H-pyrrolo[2,3-b]pyridin-5-yl)oxy)-4-(4-(1-chloro-6,7,8,9-tetrahydro-5H-benzo[7]annulen-5-yl)piperazin-1-yl)-N-((4-(((hexahydrofuro[2,3-b]furan-3-yl)methyl)amino)-3-nitrophenyl)sulfonyl)benzamide] the same measures were 20 to 200 nM, under 20 nM and 50 to 500 nM.
For `CC(=O)N1CCN(CCNc2ccc(S(=O)(=O)NC(=O)c3ccc(N4CCN([C@@H]5CCCCc6c(Br)cccc65)CC4)cc3Oc3cnc4[nH]ccc4c3)cc2[N+](=O)[O-])CC1` [Compound 65, (R)-2-((1H-pyrrolo[2,3-b]pyridin-5-yl)oxy)-N-((4-((2-(4-acetylpiperazin-1-yl)ethyl)amino)-3-nitrophenyl)sulfonyl)-4-(4-(1-bromo-6,7,8,9-tetrahydro-5H-benzo[7]annulen-5-yl)piperazin-1-yl)benzamide], the IC50 on BCL-XL and on BCL-2 was under 20 nM in each case. The GI50 with DOHH2 cells was under 50 nM.
Regarding `O=C(NS(=O)(=O)c1ccc(NCC2CCOCC2)c([N+](=O)[O-])c1)c1ccc(N2CCN([C@@H]3CCCCc4c(Br)cccc43)CC2)cc1Oc1cnc2[nH]ccc2c1` [Compound 66, (R)-2-((1H-pyrrolo[2,3-b]pyridin-5-yl)oxy)-4-(4-(1-bromo-6,7,8,9-tetrahydro-5H-benzo[7]annulen-5-yl)piperazin-1-yl)-N-((3-nitro-4-(((tetrahydro-2H-pyran-4-yl)methyl)amino)phenyl)sulfonyl)benzamide], the IC50 at BCL-XL is 20 to 200 nM; on BCL-2 it was under 20 nM. Further, the GI50 with DOHH2 cells is under 50 nM.
As to `O=C(NS(=O)(=O)c1ccc(NCC2CCC3(CC2)COC3)c([N+](=O)[O-])c1)c1ccc(N2CCN([C@@H]3CCCCc4c(Br)cccc43)CC2)cc1Oc1cnc2[nH]ccc2c1` [Compound 67, (R)-2-((1H-pyrrolo[2,3-b]pyridin-5-yl)oxy)-N-((4-(((2-oxaspiro[3.5]nonan-7-yl)methyl)amino)-3-nitrophenyl)sulfonyl)-4-(4-(1-bromo-6,7,8,9-tetrahydro-5H-benzo[7]annulen-5-yl)piperazin-1-yl)benzamide], the IC50 at BCL-XL is 20 to 200 nM; at BCL-2, under 20 nM. The compound also yielded a GI50 with DOHH2 cells of under 50 nM.
For `O=C(NS(=O)(=O)c1ccc(NCCN2CCC3(CC2)COC3)c([N+](=O)[O-])c1)c1ccc(N2CCN([C@@H]3CCCCc4c(Br)cccc43)CC2)cc1Oc1cnc2[nH]ccc2c1` [Compound 68, (R)-2-((1H-pyrrolo[2,3-b]pyridin-5-yl)oxy)-N-((4-((2-(2-oxa-7-azaspiro[3.5]nonan-7-yl)ethyl)amino)-3-nitrophenyl)sulfonyl)-4-(4-(1-bromo-6,7,8,9-tetrahydro-5H-benzo[7]annulen-5-yl)piperazin-1-yl)benzamide] the same measures were under 20 nM, under 20 nM and under 50 nM.
On the same counts, the results for `CN1CCC(CNc2ccc(S(=O)(=O)NC(=O)c3ccc(N4CCN([C@@H]5CCCCc6c(Br)cccc65)CC4)cc3Oc3cnc4[nH]ccc4c3)cc2[N+](=O)[O-])CC1` [Compound 69, (R)-2-((1H-pyrrolo[2,3-b]pyridin-5-yl)oxy)-4-(4-(1-bromo-6,7,8,9-tetrahydro-5H-benzo[7]annulen-5-yl)piperazin-1-yl)-N-((4-(((1-methylpiperidin-4-yl)methyl)amino)-3-nitrophenyl)sulfonyl)benzamide] are under 20 nM, under 20 nM and under 50 nM.
Turning to `O=C(NS(=O)(=O)c1ccc(NCC2CCC3(CC2)COC3)c([N+](=O)[O-])c1)c1ccc(N2CCN([C@@H]3CCCCc4c(Cl)cccc43)CC2)cc1Oc1cnc2[nH]ccc2c1` [Compound 71, (R)-2-((1H-pyrrolo[2,3-b]pyridin-5-yl)oxy)-N-((4-(((2-oxaspiro[3.5]nonan-7-yl)methyl)amino)-3-nitrophenyl)sulfonyl)-4-(4-(1-chloro-6,7,8,9-tetrahydro-5H-benzo[7]annulen-5-yl)piperazin-1-yl)benzamide], the IC50 at BCL-XL was 20 to 200 nM; on BCL-2, under 20 nM. The compound further displayed a GI50 in the assay on DOHH2 cells of under 50 nM.
On the same counts, the results for `O=C(NS(=O)(=O)c1ccc(NCC2CC3(COC3)C2)c([N+](=O)[O-])c1)c1ccc(N2CCN([C@@H]3CCCCc4c(Cl)cccc43)CC2)cc1Oc1cnc2[nH]ccc2c1` [Compound 72, (R)-2-((1H-pyrrolo[2,3-b]pyridin-5-yl)oxy)-N-((4-(((2-oxaspiro[3.3]heptan-6-yl)methyl)amino)-3-nitrophenyl)sulfonyl)-4-(4-(1-chloro-6,7,8,9-tetrahydro-5H-benzo[7]annulen-5-yl)piperazin-1-yl)benzamide] are 20 to 200 nM, under 20 nM and under 50 nM.
On the same counts, the results for `O=C(NS(=O)(=O)c1ccc(NCC2CCOCC2)c([N+](=O)[O-])c1)c1ccc(N2CCN([C@@H]3CCCCc4c3cccc4[N+](=O)[O-])CC2)cc1Oc1cnc2[nH]ccc2c1` [Compound 73, (R)-2-((1H-pyrrolo[2,3-b]pyridin-5-yl)oxy)-N-((3-nitro-4-(((tetrahydro-2H-pyran-4-yl)methyl)amino)phenyl)sulfonyl)-4-(4-(1-nitro-6,7,8,9-tetrahydro-5H-benzo[7]annulen-5-yl)piperazin-1-yl)benzamide] are 20 to 200 nM, under 20 nM and 50 to 500 nM.
